Data on 8 molecules can be found in US6800648B2, “Antipsychotic aminomethyl derivatives of 7,8-dihydro-3H-1,6,9-trioxa-3-AZA-cyclopenta[a]naphthalen-2-one” (Wyeth, priority 2001, dated 2004).

Structures can show the parent of a compound that is named as a salt.

In one data set the target is T1, dopamine D2 receptor (Rattus norvegicus, UniProt P61169).
T1 construct: from tissue; host or cells: rat striatal brain tissue homogenate
The experiment in a line: Dopamine D2 receptor affinity, 3H-quinpirole binding in homogenized rat striatal brain tissue. As to the method: Affinity for the dopamine D2 receptor was established by a modification of the standard experimental test procedure of Seemen and Schaus, European Journal of Pharmacology 203: 105-109, 1991, wherein homogenized rat striatal brain tissue is incubated with ^3H-quinpirole and various concentrations of test compound, filtered and washed and counted in a Betaplate scintillation counter.

The test system of a further data set is mouse locomotor activity. The experiment in a line: Reduction of mouse locomotor activity (functional antagonism of dopamine receptors in vivo). The settings on record: mice (male, CF-1), sc, horizontal activity counts 10 to 20 minutes after dosing. The method, then:
The antipsychotic activity of the compounds of the invention was established by a determination of functional antagonism of dopamine receptors in vivo, specifically the compounds' ability to reduce mouse locomotor activity according to the method of Martin and Bendensky, J. Pharmacol. Exp. Therap. 229: 706-711, 1984, in which mice (male, CF-1, Charles River, 20-30 g) were injected with vehicle or various doses of each drug and locomotor activity was measured for 30 minutes using automated infrared activity monitors (Omnitech—8×8 inch open field) located in a darkened room. ED50's were calculated from the horizontal activity counts collected from 10 to 20 minutes after dosing using a nonlinear regression analysis with inverse prediction.

T1 sequence (P61169 whole entry): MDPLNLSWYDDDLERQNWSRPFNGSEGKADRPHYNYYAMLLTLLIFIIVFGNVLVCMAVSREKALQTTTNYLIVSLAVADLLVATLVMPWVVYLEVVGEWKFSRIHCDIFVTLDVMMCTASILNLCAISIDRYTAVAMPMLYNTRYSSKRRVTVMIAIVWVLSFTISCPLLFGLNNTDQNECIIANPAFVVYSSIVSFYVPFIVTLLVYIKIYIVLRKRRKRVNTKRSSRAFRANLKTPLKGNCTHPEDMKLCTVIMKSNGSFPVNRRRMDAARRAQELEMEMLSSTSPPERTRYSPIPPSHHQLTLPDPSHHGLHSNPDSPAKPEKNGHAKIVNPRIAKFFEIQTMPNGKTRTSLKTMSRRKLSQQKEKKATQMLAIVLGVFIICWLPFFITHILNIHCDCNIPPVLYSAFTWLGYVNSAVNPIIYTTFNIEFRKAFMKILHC

For `O=c1[nH]c2ccc3c(c2o1)OC(CN1CC=C(c2c[nH]c4ccccc24)CC1)CO3` (stereo not shown), the melting point (as a rule, the temperature, or range, at which the solid turns liquid) turned out to be 202 °C. The same measure, in the same setting: under `NCC1COc2ccc3[nH]c(=O)oc3c2O1` (stereo not shown) (as salt: HCl) [Example 1, 8-Aminomethyl-7,8-dihydro-3H-1,6,9-trioxa-3-aza-cyclopenta[a]naphthalen-2-one] stands > 250 °C; under `O=c1[nH]c2ccc3c(c2o1)OC(CNCc1ccccc1)CO3` (stereo not shown) (as salt: fumarate) (hydrate or solvate) [Example 2, 8-(Benzylamino-methyl)-7,8-dihydro-3H-1,6,9-trioxa-3-aza-cyclopenta[a]naphthalen-2-one], 220 °C; under `O=c1[nH]c2ccc3c(c2o1)OC(CNCCCCc1ccccc1)CO3` (stereo not shown) (as salt: fumarate) (hydrate or solvate) [Example 4, 8-[(4-Phenyl-butylamino)-methyl]-7,8-dihydro-3H-1,6,9-trioxa-3-aza-cyclopenta[a]naphthalen-2-one], 215 to 218 °C.

In the case of `NCC1COc2ccc3[nH]c(=O)oc3c2O1` (stereo not shown) [Example 1, 8-Aminomethyl-7,8-dihydro-3H-1,6,9-trioxa-3-aza-cyclopenta[a]naphthalen-2-one], on dopamine D2 receptor, the IC50 (usually the concentration that gives 50% inhibition) was 3.7 nM.

Take `O=c1[nH]c2ccc3c(c2o1)OC(CNCc1ccccc1)CO3` (stereo not shown) [Example 2, 8-(Benzylamino-methyl)-7,8-dihydro-3H-1,6,9-trioxa-3-aza-cyclopenta[a]naphthalen-2-one]: the half-inhibitory concentration (IC50) at dopamine D2 receptor was 0.16 nM.

In the case of `O=c1[nH]c2ccc3c(c2o1)OC(CN(Cc1ccccc1)Cc1ccccc1)CO3` (stereo not shown) [Example 3, 8-[(Dibenzylamino)-methyl]-7,8-dihydro-3H-1,6,9-trioxa-3-aza-cyclopenta[a]naphthalen-2-one], the melting point amounted to 210 °C. The molecule further came in with an IC50 on dopamine D2 receptor of 475 nM. For the same molecule, in the data set with mouse locomotor activity, the 50% effective dose (ED50) (commonly the dose that gives a 50% effect, or the effect in half of the subjects) was ≥ 50 mg/kg. On dopamine D2 receptor, `O=c1[nH]c2ccc3c(c2o1)OC(CNCCCCc1ccccc1)CO3` (stereo not shown) [Example 4, 8-[(4-Phenyl-butylamino)-methyl]-7,8-dihydro-3H-1,6,9-trioxa-3-aza-cyclopenta[a]naphthalen-2-one] registered an IC50 of 2 nM.
